Where a SMILES comes first, the peptide text is derived from it.

The conditions of data set [1]: pH 7.
Protocol: 100 μL each solution was obtained immediately following dissolution with Novolin-N® and was centrifuged using a Beckman Coulter Microfuge (22R Centrifuge) at 24° C. for 20 minutes. The relative centrifugal force used was 1.75×104 g. Aliquots of each sample were immediately frozen and lyophilized. The remaining portion of each sample was not centrifuged and were incubated at 25° C. without stirring. Samples were collected again following the same procedures after 1 day, 7 days and 30 days. Dry samples were redissolved in 4:1 HPLC buffer mix (4A:1B, below) and immediately injected for liquid chromatography-mass spectroscopy (LC-MS) measurements. The HPLC buffers were (A) H2O (0.1% acetic acid and 0.02% TFA) and (B) CH3CN (0.1% acetic acid and 0.02% TFA). Solubility of each co-formulated sample was determined by measuring the absorbance from the liquid chromatogram traces at 215±8 nm and at 277±8 nm at each time point tested. points (0 hours, 24 hours, 7 days and 30 days post-formulation).
A short description of data set [2]: Thioflavin-T fluorescence assay of amyloid formation kinetics. Format: physicochemical. The settings on record: 16 μM peptide, 10 mM PBS pH 7.4, 25° C., no stirring; for amyloid formation monitored by thioflavin-T fluorescence: 1 week and 6 week incubations. Here is the method: Sample Preparation. Each peptide was dissolved into 100% hexafluoroisoproponal (HFIP) to make a 0.5 mM stock solution. Stock solutions were filtered using […] Acrodisc syringe filter with a GHP membrane and the required amount of peptide was lyophilized overnight to remove HFIP. Dry peptide was dissolved into the appropriate buffer for the fluorescence assays. Fluorescence Assays. Thioflavin-T binding assays, conducted without HFIP or stirring at 25° C., were utilized to monitor amyloid formation kinetics. Fluorescence measurements were performed using a Spectramax Gemini EM plate reader. Corning 96-well non-binding surface black plates with lids were used and were sealed with polyethylene sealing tape. Samples were prepared by dissolving dry peptide into 10 mM PBS buffer (pH 7.4) and 32 μM thioflavin-T solution immediately before the measurement. Thioflavin-T fluorescence was measured with 450 nm excitation and emission at 485 nm was monitored. The final concentrations were 16 μM peptides. After creating the mutant-hIAPP polypeptides of the present disclosure, applicants tested the propensity of the different analogs to form amyloid at pH 7.4 using thioflavin-T fluorescence assays (FIGS. 2A-D) and TEM (FIGS. 3A-E). […] Amyloid formation follows a sigmoidal time course consisting of a lag phase in which few, if any, fibrils are formed, followed by a growth phase and a saturation phase in which amyloid fibrils are in equilibrium with soluble peptide.

The nature of data set [3]: Transmission electron microscopy (TEM) of amyloid aggregates. Type of data set: physicochemical. The settings on record: for amyloid aggregates in TEM images: after 7 days of incubation, end of kinetic experiment. Here is the method: Transmission Electron Microscopy (TEM). TEM images were recorded using an FEI Bio TwinG^2 Transmission Electron Microscope at the central microscopy center at Stony Brook University. 15 μL aliquots of the samples used for fluorescence assays were removed at the end of each kinetic experiment, blotted on a carbon formvar-coated 300-mesh copper grid for 1 min and then negatively stained with saturated uranyl acetate for 1 min. Images were taken at a 68,000× magnification and 100 nm under focus. Mutant-hIAPP polypeptides of the present disclosure were further analyzed using TEM. […] In contrast, no amyloid fibrils were formed after a 1 week (FIGS. 3B-E, left) or 6 week (FIGS. 3B-E, right) culture with the any of the mutant-hIAPP analogs tested.

The target of data set [4] is T1, human amylin receptor (hAMY1(a)) (Homo sapiens, UniProt O60894+P30988).
T1 construct: expressed in transfected cells; host or cells: Cos-7 cells, transient transfection with PEI, pcDNA3.1 vectors
Nature of the data set: cAMP production (LANCE cAMP assay) in transfected Cos-7 cells. Type of data set: cell-based. The following applies: cAMP production, Cos-7 cells expressing hAMY1(a); mean ± spread; read-out: Human Amylin1(a) receptor binding data pEC50 (converted). Here is the method: (§1) Cell Culture and Transfection. Cos-7 cells were cultured and transfected for receptor activity assays as previously described in Bailey, R. J., and Hay, D. L. Peptides (2006) 27, pp. 1367-1375, the entire contents of which is incorporated herein by reference. Specifically, cells were cultured in Dulbucco's modified eagle medium (DMEM) with 8% heat-inactivated fetal bovine serum (FBS) and kept in a 37° C. humidified 95% air/5% CO2 incubator. Cells were plated at a density of 18,000-20,000 cells/well (depending on cell passage) in 96-well culture plate and returned to the incubator for approximately 18-24 hours. Transient transfections were carried out using polyethyleneimine (PEI) as described previously and maintained at 37° C. in a humidified 95% air/5% CO2 incubator for 36-48 hours. All DNA constructs used in this these were in pcDNA3.1 vectors.
(§2) cAMP Assay: Measurement of intracellular cAMP was achieved using a time-resolved fluorescent resonance energy transfer assay (LANCE cAMP assay, PerkinElmer), similar to the previously described Alphascreen assay as described in Gingell, J. J., et al. Peptides (2010) 31, pp. 1400-1404, with the following changes. Following stimulation with peptide agonist, cAMP assay media from the wells was thoroughly aspirated and 50 μl of ice-cold absolute ethanol added to each well. Plates were then placed in a −30° C. freezer for 10 minutes or overnight prior to assay, then removed and allowed to air dry in a fume hood for 1-2 hours. After ethanol evaporated from the plates, 50 μl of LANCE detection buffer (lysis buffer, 0.35% Triton X-100, 50 mM HEPES and 10 mM calcium chloride in ddH2O, pH 7.4) was added per well and left on a plate shaker for 10-15 minutes at room temperature. Meanwhile, a cAMP standard curve was generated using LANCE detection buffer and a serially diluted cAMP standard (50 μM) ranging from 1 μM to 10 pM. The serially diluted cAMP standards (5 μl) and cell lysates (5 μl) were transferred into 384-well opti-plates and sealed with a Sealplate®-A-384-well microplate adhesive film and briefly centrifuged (10 seconds, 500 rpm, 23° C.). A 1:200 dilution of LANCE assay Alexa Fluor® 647 anti-cAMP antibody was prepared in detection buffer and 5 μl added to each well. Plates were sealed and briefly centrifuged again (10 seconds, 500 rpm, 23° C.) and left to incubate, sealed for 30 minutes at room temperature. During this incubation, detection mix was made up consisting of detection buffer, Europium-W8044 labelled streptavidin (1:4500) and biotin-cAMP (1:1500). After 30 minutes incubation, 10 μl of detection mix was added to each well, plates were centrifuged (30 seconds, 500 rpm, 23° C.), sealed and left to incubate for 1 hour at room temperature. Plates were read after an overnight incubation on an Envision plate reader. A standard curve was included in each experiment to ensure accurate quantification of cAMP.
(§3) Data Analysis for Receptor Assays: Data were derived from independent experiments for statistical analysis and all experiments were performed and replicated. Quantification of cAMP was obtained from a standard curve included in each experiment and plotted using the software GraphPad Prism 6.0 (GraphPad Software Inc, San Diego, Calif., USA) with a non-linear regression 3-parameter logistic equation with a Hill Slope of 1 to determine the pEC50. The pEC50 values from the fits were combined from different experimental days and statistically tested for difference from the WT peptide using the Student's t-test with statistical significance defined as * p<0.05, ** p<0.01, *** p<0.001. Due to variability in amount of cAMP produced between experimental days, data were normalized to the control peptide for each experiment to obtain Emax values. For each analogue, data were normalized to the maximum (Emax) and minimum (Emin) responses of h-amylin. […]
On the technique in general: cAMP levels reflect the balance of adenylyl cyclase and phosphodiesterase activity.

For data set [5], the target named is T2, human calcitonin receptor (hCT(a)) (Homo sapiens, UniProt P30988).
T2 construct: expressed in transfected cells; host or cells: Cos-7 cells, transient transfection with PEI, pcDNA3.1 vectors
T2 sequence (P30988 25-474): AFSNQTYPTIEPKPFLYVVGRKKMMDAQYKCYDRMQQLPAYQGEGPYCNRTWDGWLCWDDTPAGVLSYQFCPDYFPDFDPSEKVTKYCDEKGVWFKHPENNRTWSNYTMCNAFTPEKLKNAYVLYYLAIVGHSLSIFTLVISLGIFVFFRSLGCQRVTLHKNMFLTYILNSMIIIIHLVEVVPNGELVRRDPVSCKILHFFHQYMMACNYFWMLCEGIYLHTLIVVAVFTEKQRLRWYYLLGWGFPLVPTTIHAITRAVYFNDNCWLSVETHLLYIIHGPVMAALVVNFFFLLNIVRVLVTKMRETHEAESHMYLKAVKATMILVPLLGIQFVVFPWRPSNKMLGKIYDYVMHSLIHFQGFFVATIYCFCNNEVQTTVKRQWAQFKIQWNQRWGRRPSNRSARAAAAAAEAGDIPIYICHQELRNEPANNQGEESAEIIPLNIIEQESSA
The description is as above. Format: cell-based. The settings on record: cAMP production, Cos-7 cells expressing hCT(a); mean ± spread; read-out: Human calcitonin receptor binding data pEC50 (converted). Here is the method:
as §1, §2, §3

The conditions of data set [6]: pH 7.4.
Protocol: Dry peptides were dissolved into 10 mM PBS buffer at pH 7.4 at different initial concentrations, and were incubated for 7 days at 25° C. without stirring. Each sample was then centrifuged using a Beckman Coulter Microfuge 22R Centrifuge at 24° C. for 20 min. The relative centrifugal force used was 1.75×10^4 g. Solubility of each sample was approximated by measuring the absorbance of the corresponding supernatant at 280 nm measured using a Beckman Coulter DU 730 UV/Vis Spectrophotometer.
Each peptide tested was incubated in 10 mM PBS buffer at pH 7.4 for 7 days at three different concentrations (100 μM, 500 μM and 1 mM) and the solution was then centrifuged. The apparent solubility was represented by the absorbance of the supernatant of each sample measured at 280 nm. The extinction coefficients of all polypeptides are very similar at 280 nm since they all contain the same aromatic residues and each contains a disulfide bond. […] A peptide which is soluble at 1 mM and above will show a linear dependence of absorbance on initial concentration. A peptide which is less soluble will deviate from linearity. The peptides were centrifuged after 7 days and their apparent solubility measured by measuring the absorbance at 280 nm of the supernatant of each solution. The apparent concentration refers to the concentration which would be obtained if all of the peptide dissolved. The absorbance of the supernatant is directly proportion to the amount of peptide in solution.

T1 sequence (O60894 27-148 partner, one chain of several): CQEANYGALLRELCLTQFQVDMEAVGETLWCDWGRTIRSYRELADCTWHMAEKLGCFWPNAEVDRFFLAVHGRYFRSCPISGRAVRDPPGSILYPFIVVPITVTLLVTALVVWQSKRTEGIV

As for `CC(C)C[C@H](NC(=O)[C@H](CCCNC(=N)N)NC(=O)[C@H](CCC(N)=O)NC(=O)[C@@H](NC(=O)[C@H](C)NC(=O)[C@@H]1CSSC[C@H](NC(=O)[C@@H](N)CCCCN)C(=O)N[C@@H](CC(N)=O)C(=O)N[C@@H]([C@@H](C)O)C(=O)N[C@@H](C)C(=O)N[C@@H]([C@@H](C)O)C(=O)N1)[C@@H](C)O)C(=O)N[C@@H](C)C(=O)N[C@@H](CC(N)=O)C(=O)N[C@@H](Cc1ccccc1)C(=O)N[C@@H](CC(C)C)C(=O)N[C@H](C(=O)N[C@@H](Cc1c[nH]cn1)C(=O)N[C@@H](CO)C(=O)N[C@@H](CO)C(=O)N[C@@H](CCCCN)C(=O)N[C@@H](CC(N)=O)C(=O)N[C@@H](Cc1ccccc1)C(=O)N1CCC[C@H]1C(=O)N[C@@H](C)C(=O)N1CCC[C@H]1C(=O)N[C@@H](CC(C)C)C(=O)N[C@@H](CO)C(=O)N[C@@H](CO)C(=O)N[C@H](C(=O)N[C@@H](CC(N)=O)C(=O)N[C@H](C(=O)NCC(=O)N[C@@H](CO)C(=O)N[C@@H](CCCCN)C(=O)N[C@H](C(=O)N[C@@H](Cc1ccc(O)cc1)C(N)=O)[C@@H](C)O)C(C)C)[C@@H](C)O)C(C)C` [SEQ ID NO: 8] (HELM PEPTIDE1{K.C.N.T.A.T.C.A.T.Q.R.L.A.N.F.L.V.H.S.S.K.N.F.P.A.P.L.S.S.T.N.V.G.S.K.T.Y.[am]}$PEPTIDE1,PEPTIDE1,2:R3-7:R3$$$V2.0), the “solubility co-formulated with Novolin-N (absorbance at 215 nm and 277 nm, LC-MS)” value in data set [1] was “significantly higher absorbance when compared to both wild-type hIAPP and paramlintide”. For the same compound, the “amyloid formation monitored by thioflavin-T fluorescence” value (shortened to “amyloid formation monitored”) in data set [2] is given as “none of the mutant hIAPP polypeptides forms amyloid”. The “amyloid aggregates in TEM images” value in data set [3] is reported as “no aggregates are observed”. Further, the results for the EC50 in data set [4] and in data set [5] were 1.78 nM and 10.7 nM, respectively. For the same compound, in data set [6], the “solubility at neutral pH (absorbance of supernatant at 280 nm)” value is given as “more substantially soluble than wild-type hIAPP”.

In the case of `CC[C@H](C)[C@H](NC(=O)[C@H](C)NC(=O)CNC(=O)[C@H](Cc1ccccc1)NC(=O)[C@H](CC(N)=O)NC(=O)[C@H](CC(N)=O)NC(=O)[C@H](CO)NC(=O)[C@H](CO)NC(=O)[C@H](Cc1c[nH]cn1)NC(=O)[C@@H](NC(=O)[C@H](CC(C)C)NC(=O)[C@H](Cc1ccccc1)NC(=O)[C@H](CC(N)=O)NC(=O)[C@H](C)NC(=O)[C@H](CC(C)C)NC(=O)[C@H](CCCNC(=N)N)NC(=O)[C@H](CCC(N)=O)NC(=O)[C@@H](NC(=O)[C@H](C)NC(=O)[C@@H]1CSSC[C@H](NC(=O)[C@@H](N)CCCCN)C(=O)N[C@@H](CC(N)=O)C(=O)N[C@@H]([C@@H](C)O)C(=O)N[C@@H](C)C(=O)N[C@@H]([C@@H](C)O)C(=O)N1)[C@@H](C)O)C(C)C)C(=O)N[C@@H](CC(C)C)C(=O)N[C@@H](CO)C(=O)N[C@@H](CO)C(=O)N[C@H](C(=O)N[C@@H](CC(N)=O)C(=O)N[C@H](C(=O)NCC(=O)N[C@@H](CO)C(=O)N[C@@H](CC(N)=O)C(=O)N[C@H](C(=O)N[C@@H](Cc1ccc(O)cc1)C(N)=O)[C@@H](C)O)C(C)C)[C@@H](C)O` [Wild-type hIAPP, reference compound], the “time at which amyloid formation reaches the saturation phase” value in data set [2] (32 μM thioflavin-T) was ≤ 30 h. Moreover, the “amyloid formation monitored” value in data set [2] is on record as “forms significant amounts of amyloid”. In addition, the “amyloid fibrils in TEM images” value in data set [3] (after 1 week and 6 week time periods) is given as “typical amyloid fibril morphology”. Further, the “amyloid aggregates in TEM images” value in data set [3] is “extensive amounts of amyloid fibers”.

Take `CC[C@H](C)[C@H](NC(=O)[C@H](C)NC(=O)CNC(=O)[C@H](Cc1ccccc1)NC(=O)[C@H](CC(N)=O)NC(=O)[C@H](CCCCN)NC(=O)[C@H](CO)NC(=O)[C@H](CO)NC(=O)[C@H](Cc1c[nH]cn1)NC(=O)[C@@H](NC(=O)[C@H](CC(C)C)NC(=O)[C@H](Cc1ccccc1)NC(=O)[C@H](CC(N)=O)NC(=O)[C@H](C)NC(=O)[C@H](CC(C)C)NC(=O)[C@H](CCCNC(=N)N)NC(=O)[C@H](CCC(N)=O)NC(=O)[C@@H](NC(=O)[C@H](C)NC(=O)[C@@H]1CSSC[C@H](NC(=O)[C@@H](N)CCCCN)C(=O)N[C@@H](CC(N)=O)C(=O)N[C@@H]([C@@H](C)O)C(=O)N[C@@H](C)C(=O)N[C@@H]([C@@H](C)O)C(=O)N1)[C@@H](C)O)C(C)C)C(=O)N[C@@H](CC(C)C)C(=O)N[C@@H](CO)C(=O)N[C@@H](CO)C(=O)N[C@H](C(=O)N[C@@H](CC(N)=O)C(=O)N[C@H](C(=O)NCC(=O)N[C@@H](CO)C(=O)N[C@@H](CCCCN)C(=O)N[C@H](C(=O)N[C@@H](Cc1ccc(O)cc1)C(N)=O)[C@@H](C)O)C(C)C)[C@@H](C)O` [SEQ ID NO: 7] (HELM PEPTIDE1{K.C.N.T.A.T.C.A.T.Q.R.L.A.N.F.L.V.H.S.S.K.N.F.G.A.I.L.S.S.T.N.V.G.S.K.T.Y.[am]}$PEPTIDE1,PEPTIDE1,2:R3-7:R3$$$V2.0): the “solubility co-formulated with Novolin-N (absorbance at 215 nm and 277 nm, LC-MS)” value in data set [1] was “significantly higher absorbance when compared to both wild-type hIAPP and paramlintide”. Further, the “amyloid formation monitored” value in data set [2] is on record as “none of the mutant hIAPP polypeptides forms amyloid”. The “amyloid aggregates in TEM images” value in data set [3] is “no aggregates are observed”. Further, the EC50 is 0.741 nM in data set [4] and 2.4 nM in data set [5]. Further, the “solubility at neutral pH (absorbance of supernatant at 280 nm)” value in data set [6] is reported as “more substantially soluble than wild-type hIAPP”.

The values above are taken from patent US11028137B2, “Mutant islet amyloid polypeptides with improved solubility and methods for using the same” (priority 2017, dated 2021).
